Laboratory results from the OligoGym collection.
Several values for one entry are separate records, joined by “and”; a condition that tells them apart may be missing. Equal values may be shown once. After the bases stand the sugars from the 5' end (letter, count) and the backbone: PS all phosphorothioate, else s phosphorothioate and o phosphodiester by linkage. Methylation of C is not given here. e = 2'-O-(2-methoxyethyl) (MOE); k = constrained ethyl (cEt); d = 2'-deoxy (DNA)

Target: APOL1
Details: ASO

Sequence | target mRNA inhibition (A431, 0.0625 µM) | target mRNA inhibition (A431, 0.25 µM) | target mRNA inhibition (A431, 1 µM) | target mRNA inhibition (A431, 2 µM) [%] | also measured
GAATGAGCAGGTCAGA (sugars k4 d9 k3, PS) | 41% | 75% | 91% | – | –
GAATTATGGAATTGCA (sugars k3 d4 k3 e1 d5, PS) | – | – | – | 90 | –
GAATTATGGAATTGCA (sugars kkddddkdkdkddddd, PS) | – | – | – | 82 | –
GAGTATTGTTTTTGTG (sugars kkdddddkekeddddd, PS) | 75% | 91% | 96% | 96 | target mRNA inhibition (A431, 0.0156 µM): 33%
GAGTATTGTTTTTGTG (sugars kkddddkekekkdddd, PS) | – | – | – | 85 | –
GAGTATTGTTTTTGTG (sugars kkkddddkekekdddd, PS) | – | – | – | 56 | –
GCAATTTTATGGAACC (sugars k4 d9 k3, PS) | – | – | 91% | – | target mRNA inhibition (A431, 0.04 µM): 42%
GCATTCAGAATTTCCA (sugars kkkddddkekeddddd, PS) | – | – | – | 84 | –
GCTAAGTTCCGGTCTC (sugars k4 d9 k3, PS) | 50% | 74% | 85% | – | –
GCTAATTTTCTGACTG (sugars kkdddddkekeddddd, PS) | 47% | 82% | 94% | 99 | target mRNA inhibition (A431, 0.0156 µM): 11%
GCTAATTTTCTGACTG (sugars kkddddkdkdkddddd, PS) | 40% | 71% | 87% | 93 | target mRNA inhibition (A431, 0.0156 µM): 10%
GCTAATTTTCTGACTG (sugars kkkddddkekekdddd, PS) | – | – | – | 88 | –
GCTTTAAACTCAGGTG (sugars k2 d4 e3 k2 d5, PS) | – | – | – | 91 | –
GCTTTAAACTCAGGTG (sugars k3 d4 k3 e1 d5, PS) | – | – | – | 74 | –
GCTTTAAACTCAGGTG (sugars kekddddeekkddddd, PS) | – | – | – | 93 | –
GCTTTAAACTCAGGTG (sugars kkdddddkekeddddd, PS) | 35% | 67% | 85% | 91 | target mRNA inhibition (A431, 0.0156 µM): 6%
GCTTTAAACTCAGGTG (sugars kkkddddkdkdkdddd, PS) | 54% | 81% | 93% | 93 | target mRNA inhibition (A431, 0.0156 µM): 18%
GCTTTAAACTCAGGTG (sugars kkkddddkekekdddd, PS) | – | – | – | 68 | –
GGAATTATGGAATTGC (sugars k3 d4 k3 e1 d5, PS) | – | – | – | 65 | –
GGAATTATGGAATTGC (sugars kkddddekekeddddd, PS) | 62% | 89% | 97% | 97 | target mRNA inhibition (A431, 0.0156 µM): 23%
GGAATTATGGAATTGC (sugars kkddddkdkdkddddd, PS) | – | – | – | 89 | –
GGCAGTTTTGTAAGTG (sugars kkddddekekeddddd, PS) | – | – | – | 75 | –
GGCAGTTTTGTAAGTG (sugars kkddddkekekddddd, PS) | – | – | – | 65 | –
GGCATTCAGAATTTCC (sugars k2 d4 e3 k2 d5, PS) | – | – | – | 97 | –
GGCATTCAGAATTTCC (sugars kkddddekekeddddd, PS) | – | – | – | 93 | –
GGCATTCAGAATTTCC (sugars kkddddkekekddddd, PS) | – | – | – | 46 | –
GGCATTCAGAATTTCC (sugars kkkddddkekekdddd, PS) | – | – | – | 20 | –
GGGTTATGAAATTATT (sugars kkddddkekekddddd, PS) | – | – | – | 84 | –

Sequence | target mRNA inhibition (A431, 0.0625 µM) | target mRNA inhibition (A431, 0.25 µM) | target mRNA inhibition (A431, 1 µM) | target mRNA inhibition (A431, 2 µM) [%] | also measured
GGTAAGAGCGATGGGA (sugars k3 d10 k3, PS) | 79% | 93% | 97% | – | –
GGTTATGAAATTATTG (sugars k2 d4 e3 k2 d5, PS) | – | – | – | 61 | –
GGTTATGAAATTATTG (sugars kkkddddkekeddddd, PS) | – | – | – | 88 | –
GGTTCAAAAGCAGCAT (sugars k2 d4 e3 k2 d5, PS) | 60% | 86% | 94% | 95 | target mRNA inhibition (A431, 0.0156 µM): 21%
GGTTCAAAAGCAGCAT (sugars k4 d9 k3, PS) | 78% | 91% | 95% | – | –
GTAAGTATTGCCAGCT (sugars k2 d4 e3 k2 d5, PS) | – | – | – | 89 | –
GTAAGTGCAACCAATC (sugars k4 d9 k3, PS) | 75% | 93% | 99% | – | –
GTATTGCCAGCTAAGG (sugars kddddkekekeddddd, PS) | – | – | – | 70 | –
GTATTTCTTGATGTGG (sugars kdddddkekekddddd, PS) | – | – | – | 92 | –
GTATTTCTTGATGTGG (sugars kddddkekekeddddd, PS) | – | – | – | 87 | –
GTGAGTATTGTTTTTG (sugars k2 d4 e3 k2 d5, PS) | – | – | – | 92 | –
GTGAGTATTGTTTTTG (sugars kkkddddkekekdddd, PS) | – | – | – | 85 | –
GTGTATTTCTTGATGT (sugars kkddddkekekddddd, PS) | – | – | – | 95 | –
GTGTATTTCTTGATGT (sugars kkkddddkekekdddd, PS) | – | – | – | 84 | –
GTGTGAGTTGGTAAGT (sugars k4 d9 k3, PS) | 54% | 85% | 95% | – | –
GTGTTATATTTGATCC (sugars kkkddddkekeddddd, PS) | 66% | 89% | 95% | 96 | target mRNA inhibition (A431, 0.0156 µM): 24%; target mRNA inhibition (A431, 0.04 µM): 50%
GTTATATTTGATCCTC (sugars k2 d4 e3 k2 d5, PS) | 31% | 67% | 89% | 93 | target mRNA inhibition (A431, 0.0156 µM): 2%
GTTATATTTGATCCTC (sugars k3 d4 k3 e1 d5, PS) | – | – | – | 98 | –
GTTATATTTGATCCTC (sugars kddddkekekeddddd, PS) | – | – | – | 60 | –
GTTATATTTGATCCTC (sugars kkdddddkekeddddd, PS) | – | – | – | 97 | –
GTTATATTTGATCCTC (sugars kkddddekekeddddd, PS) | 37% | 69% | 64% | 96 | target mRNA inhibition (A431, 0.0156 µM): 8%
GTTATATTTGATCCTC (sugars kkddddkekekkdddd, PS) | – | – | – | 43 | –
GTTATATTTGATCCTC (sugars kkkddddkekekdddd, PS) | – | – | – | 66 | –
GTTATGAAATTATTGG (sugars k4 d9 k3, PS) | 58% and 42% | 87% and 73% | 95% and 87% and 97% | – | –
GTTATGAAATTATTGG (sugars kddddkekekeddddd, PS) | – | – | – | 77 | –
GTTATGAAATTATTGG (sugars kekddddeekkddddd, PS) | 43% | 64% | 84% | 90 | target mRNA inhibition (A431, 0.0156 µM): 14%
GTTATGAAATTATTGG (sugars kkddddkekekkdddd, PS) | – | – | – | 86 | –
